Biological target: T1, PI3Kδ (Homo sapiens, UniProt O00329)
T1 construct: The protein is full length and co-expressed with untagged PIK3R1; GST; purchased Invitrogen PV5274
Experiment: PI3Kδ inhibition, modified PIK3CD Adapta TR-FRET assay
Format: biochemical
Details: recombinant GST-tagged full length PIK3CD co-expressed with PIK3R1 (p85α); 2 μM ATP, 50 μM PIP2; read-out: PI3Kδ Inhibition (pIC50) (converted)
Procedure, shortened: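 Full-length GST-PIK3CD co-expressed with p85α was run in 50 mM HEPES pH 7.5, 3 mM MgCl2, 1 mM EGTA, 100 mM NaCl, 0.03% CHAPS, 2 mM DTT, 1% DMSO, with 12-point compound titrations. Reactions at room temperature were started with solution containing 2 μM ATP and 50 μM PIP2. ADP was detected by Adapta TR-FRET (620 nm-ratioed).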

T1 sequence (O00329 whole entry): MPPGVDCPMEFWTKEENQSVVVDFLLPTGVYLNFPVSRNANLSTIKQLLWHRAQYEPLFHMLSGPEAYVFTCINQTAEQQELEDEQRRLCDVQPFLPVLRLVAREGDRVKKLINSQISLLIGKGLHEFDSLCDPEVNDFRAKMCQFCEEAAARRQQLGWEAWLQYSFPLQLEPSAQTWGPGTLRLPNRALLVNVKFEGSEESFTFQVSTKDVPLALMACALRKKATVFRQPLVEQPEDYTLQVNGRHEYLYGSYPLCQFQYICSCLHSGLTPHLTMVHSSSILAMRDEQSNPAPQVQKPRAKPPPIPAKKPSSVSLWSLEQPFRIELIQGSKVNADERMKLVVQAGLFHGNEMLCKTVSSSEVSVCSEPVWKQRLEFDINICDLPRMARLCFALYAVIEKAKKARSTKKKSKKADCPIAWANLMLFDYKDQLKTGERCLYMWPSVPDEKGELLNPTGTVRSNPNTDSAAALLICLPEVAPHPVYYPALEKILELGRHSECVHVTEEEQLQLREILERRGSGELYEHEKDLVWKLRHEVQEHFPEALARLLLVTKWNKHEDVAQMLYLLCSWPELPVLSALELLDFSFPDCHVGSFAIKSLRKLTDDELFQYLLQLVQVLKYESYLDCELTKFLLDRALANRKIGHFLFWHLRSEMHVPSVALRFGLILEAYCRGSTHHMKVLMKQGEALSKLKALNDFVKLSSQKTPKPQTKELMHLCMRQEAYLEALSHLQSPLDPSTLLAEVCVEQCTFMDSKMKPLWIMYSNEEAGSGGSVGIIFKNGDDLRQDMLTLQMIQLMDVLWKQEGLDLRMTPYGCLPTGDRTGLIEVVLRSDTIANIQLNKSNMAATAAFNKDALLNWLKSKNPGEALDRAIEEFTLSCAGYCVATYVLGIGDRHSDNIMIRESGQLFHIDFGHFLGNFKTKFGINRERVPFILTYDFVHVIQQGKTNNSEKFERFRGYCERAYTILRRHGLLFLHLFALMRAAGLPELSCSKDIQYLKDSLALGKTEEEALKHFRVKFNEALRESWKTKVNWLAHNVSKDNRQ
T1 sequence (P27986 whole entry partner): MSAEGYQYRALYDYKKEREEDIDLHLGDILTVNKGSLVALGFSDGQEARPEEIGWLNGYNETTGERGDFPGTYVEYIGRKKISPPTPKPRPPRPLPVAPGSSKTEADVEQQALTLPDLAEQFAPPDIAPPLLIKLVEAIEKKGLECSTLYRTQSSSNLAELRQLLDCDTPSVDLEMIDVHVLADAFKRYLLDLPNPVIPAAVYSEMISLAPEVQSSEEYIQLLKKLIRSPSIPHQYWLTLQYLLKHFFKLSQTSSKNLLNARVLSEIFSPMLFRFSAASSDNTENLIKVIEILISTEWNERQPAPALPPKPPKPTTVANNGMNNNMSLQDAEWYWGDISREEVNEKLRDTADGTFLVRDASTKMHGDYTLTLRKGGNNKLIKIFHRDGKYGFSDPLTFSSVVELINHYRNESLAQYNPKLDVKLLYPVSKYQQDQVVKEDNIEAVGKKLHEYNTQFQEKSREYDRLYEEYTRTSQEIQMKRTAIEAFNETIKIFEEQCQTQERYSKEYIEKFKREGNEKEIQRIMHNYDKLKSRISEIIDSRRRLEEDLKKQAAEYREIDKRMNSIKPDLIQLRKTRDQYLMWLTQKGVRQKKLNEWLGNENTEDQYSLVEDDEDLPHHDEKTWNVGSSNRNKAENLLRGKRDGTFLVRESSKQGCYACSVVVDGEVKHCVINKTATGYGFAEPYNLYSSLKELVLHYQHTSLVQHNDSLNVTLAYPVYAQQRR

SMILES	IC50
O=C(CN1C[C@@H]2COCCN2c2nc(-c3ccccc3CO)ncc21)NCC1CCOCC1 [Example 215, (R)-2-(2-(2-(hydroxymethyl)phenyl)-6a,7,9,10-tetrahydro-[1,4]oxazino[3,4-h]pteridin-5(6H)-yl)-N-((tetrahydro-2H-pyran-4-yl)methyl)acetamide]	5010 nM
COCc1cccc(-c2ncc3c(n2)N2CCOC[C@H]2CN3CC(=O)NCC2CCOCC2)c1 [Example 216, (R)-2-(2-(3-(methoxymethyl)phenyl)-6a,7,9,10-tetrahydro-[1,4]oxazino[3,4-h]pteridin-5(6H)-yl)-N-((tetrahydro-2H-pyran-4-yl)methyl)acetamide]	1000 nM
O=C(CN1C[C@@H]2COCCN2c2nc(-c3cccc(OC(F)F)c3)ncc21)NCC1CCOCC1 [Example 217, (R)-2-(2-(3-(difluoromethoxy)phenyl)-6a,7,9,10-tetrahydro-[1,4]oxazino[3,4-h]pteridin-5(6H)-yl)-N-((tetrahydro-2H-pyran-4-yl)methyl)acetamide]	794 nM
N#Cc1cccc(-c2ncc3c(n2)N2CCOC[C@H]2CN3CC(=O)NCC2CCOCC2)c1 [Example 218, (R)-2-(2-(3-cyanophenyl)-6a,7,9,10-tetrahydro-[1,4]oxazino[3,4-h]pteridin-5(6H)-yl)-N-((tetrahydro-2H-pyran-4-yl)methyl)acetamide]	1260 nM
O=C(CN1C[C@@H]2COCCN2c2nc(-c3ccc(F)c(CO)c3)ncc21)NCC1CCOCC1 [Example 220, (R)-2-(2-(4-fluoro-3-(hydroxymethyl)phenyl)-6a,7,9,10-tetrahydro-[1,4]oxazino[3,4-h]pteridin-5(6H)-yl)-N-((tetrahydro-2H-pyran-4-yl)methyl)acetamide]	251 nM
Nc1ccc(-c2ncc3c(n2)N2CCOC[C@H]2CN3CC(=O)NCC2CCOCC2)cn1 [Example 221, (R)-2-(2-(6-aminopyridin-3-yl)-6a,7,9,10-tetrahydro-[1,4]oxazino[3,4-h]pteridin-5(6H)-yl)-N-((tetrahydro-2H-pyran-4-yl)methyl)acetamide]	126 nM
CNC(=O)Nc1ccc(-c2ncc3c(n2)N2CCOC[C@H]2CN3CC(=O)NCC2CCOCC2)cc1 [Example 222, (R)-2-(2-(4-(3-methylureido)phenyl)-6a,7,9,10-tetrahydro-[1,4]oxazino[3,4-h]pteridin-5(6H)-yl)-N-((tetrahydro-2H-pyran-4-yl)methyl)acetamide]	31.6 nM
O=C(CN1C[C@@H]2COCCN2c2nc(-c3ccsc3)ncc21)NCC1CCOCC1 [Example 223, (R)—N-((tetrahydro-2H-pyran-4-yl)methyl)-2-(2-(thiophen-3-yl)-6a,7,9,10-tetrahydro-[1,4]oxazino[3,4-h]pteridin-5(6H)-yl)acetamide]	794 nM
CC(=O)Nc1ccc(-c2ncc3c(n2)N2CCOC[C@H]2CN3CC(=O)NCC2CCOCC2)cc1 [Example 224, (R)-2-(2-(4-acetamidophenyl)-6a,7,9,10-tetrahydro-[1,4]oxazino[3,4-h]pteridin-5(6H)-yl)-N-((tetrahydro-2H-pyran-4-yl)methyl)acetamide]	316 nM
Cn1nccc1-c1ncc2c(n1)N1CCOC[C@H]1CN2CC(=O)NCC1CCOCC1 [Example 225, (R)-2-(2-(1-methyl-1H-pyrazol-5-yl)-6a,7,9,10-tetrahydro-[1,4]oxazino[3,4-h]pteridin-5(6H)-yl)-N-((tetrahydro-2H-pyran-4-yl)methyl)acetamide]	1580 nM
O=C(CN1C[C@@H]2COCCN2c2nc(-c3ccc(CO)s3)ncc21)NCC1CCOCC1 [Example 226, (R)-2-(2-(5-(hydroxymethyl)thiophen-2-yl)-6a,7,9,10-tetrahydro-[1,4]oxazino[3,4-h]pteridin-5(6H)-yl)-N-((tetrahydro-2H-pyran-4-yl)methyl)acetamide]	501 nM
CC(C)(O)CCCN1C[C@@H]2COCCN2c2nc(-c3cccc4[nH]ccc34)ncc21 [Example 227, (R)-5-(2-(1H-indol-4-yl)-6a,7,9,10-tetrahydro-[1,4]oxazino[3,4-h]pteridin-5(6H)-yl)-2-methylpentan-2-ol]	15.8 nM
Cc1ccc(C(N)=O)c(CN2CC3COCCN3c3nc(-c4cccc5[nH]ccc45)ncc32)c1 (centres unmarked) [Example 228, 2-((2-(1H-indol-4-yl)-6a,7,9,10-tetrahydro-[1,4]oxazino[3,4-h]pteridin-5(6H)-yl)methyl)-4-methylbenzamide]	158 nM
O=C(Nc1ccc(-c2ncc3c(n2)N2CCOCC2C(=O)N3C2CCOCC2)cc1)NC1CC1 (centres unmarked) [Example 229, 1-cyclopropyl-3-(4-(6-oxo-5-(tetrahydro-2H-pyran-4-yl)-5,6,6a,7,9,10-hexahydro-[1,4]oxazino[3,4-h]pteridin-2-yl)phenyl)urea]	31.6 nM
